From patent publication US10865216B2, “Tricyclic Gyrase inhibitors” (MERCK SHARP & DOHME CORP., priority 2012, dated 2020)
≈ marks a conversion by molar mass, not a printed value. Like-named read-outs stand apart in the source and are kept apart here. Blank lines part the entries; values can stand above or below the compound they belong to.

How the values were obtained:
S. aureus ATCC 13709 = assay: MIC, S. aureus ATCC 13709; assay type: cell-based; conditions: for MIC: Staphylococcus aureus; for MIC Sa: S. aureus
E. coli ATCC 25922 = assay: MIC, E. coli ATCC 25922; assay type: cell-based; conditions: for MIC: Escherichia coli; for MIC Ec: E. coli
[1] = ATCC13709, Table 16, new R4 substituents, read-out: SA MIC
[2] = ATCC25922, Table 16, new R4 substituents, EC8 not defined, read-out: EC8 MIC
[3] = Alamar Blue read after overnight incubation at 35° C.
[4] = ATCC13709, S. aureus, Alamar Blue read after overnight incubation at 35° C., read-out: MIC Sa
[5] = ATCC25922, E. coli, Alamar Blue read after overnight incubation at 35° C., read-out: MIC Ec

Compound: CNc1cc(F)cc2c1[nH]c1nc(Oc3cnc(C)nc3)nc(N3CC[C@@H](CN)C3)c12
MIC (S. aureus ATCC 13709; [1]): ≤ 0.5 µg/mL | MIC (E. coli ATCC 25922; [2]): ≤ 0.5 µg/mL

Compound: CNc1cc(F)cc2c1[nH]c1nc(Oc3cnc(C)nc3)nc(N3CC[C@H](CN)C3)c12
MIC (S. aureus ATCC 13709; [1]): ≤ 0.5 µg/mL | MIC (E. coli ATCC 25922; [2]): ≤ 0.5 µg/mL

Compound: CNc1cc(F)cc2c1[nH]c1nc(Oc3cnc(C)nc3)nc(NCCN)c12
MIC (S. aureus ATCC 13709; [1]): 4 µg/mL (≈ 10.5 µM) | MIC (E. coli ATCC 25922; [2]): 16 µg/mL (≈ 41.8 µM)

Compound: CNc1cc(F)cc2c1[nH]c1nc(Oc3cnc(C)nc3)nc(N3CCC[C@H]3CN)c12
MIC (S. aureus ATCC 13709; [1]): 1 µg/mL (≈ 2.37 µM) | MIC (E. coli ATCC 25922; [2]): 2 µg/mL (≈ 4.73 µM)

Compound: CNc1cc(F)cc2c1[nH]c1nc(Oc3cnc(C)nc3)nc(C3=CCNC3)c12
MIC (S. aureus ATCC 13709; [1]): ≤ 0.5 µg/mL | MIC (E. coli ATCC 25922; [2]): 8 µg/mL (≈ 20.4 µM)

Compound: CNc1cc(F)cc2c1[nH]c1nc(Oc3cnc(C)nc3)nc(N3CC(N)C(C(=O)O)C3)c12 (centres unmarked)
MIC (S. aureus ATCC 13709; [1]): > 16 µg/mL | MIC (E. coli ATCC 25922; [2]): > 16 µg/mL

Compound: NC1CN(c2nc(Sc3cnc4ccc[n+]([O-])c4c3)nc3[nH]c4c(NC5CC5)cc(F)cc4c23)CC12CC2 (centres unmarked) [Compound 1.02]
MIC Sa (S. aureus ATCC 13709; [3]): 32 µg/mL (≈ 60.5 µM) | MIC Ec (E. coli ATCC 25922; [3]): >64 µg/mL

Compound: NC1C2CN(c3nc(Sc4cnc5ccc[n+]([O-])c5c4)nc4[nH]c5c(Cl)cccc5c34)CC12 (centres unmarked) [Compound 1.03]
MIC Sa (S. aureus ATCC 13709; [3]): 32 µg/mL (≈ 67.2 µM) | MIC Ec (E. coli ATCC 25922; [3]): >64 µg/mL

Compound: N[C@@H]1CCN(c2nc(Sc3cnc4ccc[n+]([O-])c4c3)nc3[nH]c4c(Cl)cccc4c23)C1 [Compound 1.04]
MIC Sa (S. aureus ATCC 13709; [3]): 32 µg/mL (≈ 69 µM) | MIC Ec (E. coli ATCC 25922; [3]): 64 µg/mL (≈ 138 µM)

Compound: NC1CN(c2nc(Sc3cnc4nccnc4c3)nc3[nH]c4ccccc4c23)C1 [Compound 1.05]
MIC Sa (S. aureus ATCC 13709; [3]): >64 µg/mL | MIC Ec (E. coli ATCC 25922; [3]): >64 µg/mL

Compound: NC1CCN(c2nc(Sc3cnc4nccnc4c3)nc3[nH]c4ccccc4c23)C1 (centres unmarked) [Compound 1.06]
MIC Sa (S. aureus ATCC 13709; [3]): 32 µg/mL (≈ 77.2 µM) | MIC Ec (E. coli ATCC 25922; [3]): >64 µg/mL

Compound: Cc1cccc2c1[nH]c1nc(Sc3cnc4nccnc4c3)nc(N3CC4C(N)C4C3)c12 (centres unmarked) [Compound 1.07]
MIC Sa (S. aureus ATCC 13709; [3]): 4 µg/mL (≈ 9.08 µM) | MIC Ec (E. coli ATCC 25922; [3]): >32 µg/mL

Compound: Nc1cccc2c1[nH]c1nc(Sc3cnc4ccc[n+]([O-])c4c3)nc(N3CC4C(N)C4C3)c12 (centres unmarked) [Compound 1.08]
MIC Sa (S. aureus ATCC 13709; [3]): 64 µg/mL (≈ 140 µM) | MIC Ec (E. coli ATCC 25922; [3]): >64 µg/mL

Compound: CNc1cccc2c1[nH]c1nc(Sc3cnc4ccc[n+]([O-])c4c3)nc(N3CC[C@H](N)C3)c12 [Compound 1.14]
MIC (S. aureus ATCC 13709; [4]): ≤ 0.5 µg/mL | MIC (E. coli ATCC 25922; [5]): 1 µg/mL (≈ 2.18 µM)

Compound: CNc1cccc2c1[nH]c1nc(Sc3cnc4nccnc4c3)nc(N3CC[C@H](N)C3)c12 [Compound 1.15]
MIC (S. aureus ATCC 13709; [4]): 1 µg/mL (≈ 2.25 µM) | MIC (E. coli ATCC 25922; [5]): 2 µg/mL (≈ 4.51 µM)

Compound: CNc1cccc2c1[nH]c1nc(Sc3cnc4ccc[n+]([O-])c4c3)nc(N3CC(O)C3)c12 [Compound 1.17]
MIC (S. aureus ATCC 13709; [4]): ≤ 0.5 µg/mL | MIC (E. coli ATCC 25922; [5]): > 64 µg/mL

Compound: CNc1cccc2c1[nH]c1nc(Sc3cnc4ccc[n+]([O-])c4c3)nc(N3C[C@@H]4[C@@H](CN)[C@@H]4C3)c12 [Compound 1.18]
MIC (S. aureus ATCC 13709; [4]): ≤ 0.5 µg/mL | MIC (E. coli ATCC 25922; [5]): 2 µg/mL (≈ 4.13 µM)

Compound: CNc1cccc2c1[nH]c1nc(Sc3cnc4ccc[n+]([O-])c4c3)nc(N3C[C@@H]4[C@H](C3)[C@@]4(N)C(N)=O)c12 [Compound 1.19]
MIC Sa (S. aureus ATCC 13709; [3]): >64 µg/mL | MIC Ec (E. coli ATCC 25922; [3]): >64 µg/mL

Compound: CNc1cccc2c1[nH]c1nc(Sc3cnc4ccc[n+]([O-])c4c3)nc(N3CC(CN)C3)c12 [Compound 1.20]
MIC (S. aureus ATCC 13709; [4]): 4 µg/mL (≈ 8.72 µM) | MIC (E. coli ATCC 25922; [5]): 16 µg/mL (≈ 34.9 µM)

Compound: CNc1cccc2c1[nH]c1nc(Sc3cnc4ccc[n+]([O-])c4c3)nc(N3CC(CNC(=O)c4cn(C)nc4C(F)(F)F)C3)c12 [Compound 1.21]
MIC (S. aureus ATCC 13709; [4]): ≤ 0.5 µg/mL | MIC (E. coli ATCC 25922; [5]): > 64 µg/mL

Compound: CNc1cccc2c1[nH]c1nc(Sc3cncc(S(=O)(=O)N(C)C)c3)nc(N3CC4C(N)C4C3)c12 (centres unmarked) [Compound 1.22]
MIC (S. aureus ATCC 13709; [4]): 1 µg/mL (≈ 1.96 µM) | MIC (E. coli ATCC 25922; [5]): 8 µg/mL (≈ 15.7 µM)

Other lines, results leading:

MIC Sa (S. aureus ATCC 13709; [3]): 64 µg/mL (≈ 145 µM) | MIC Ec (E. coli ATCC 25922; [3]): >64 µg/mL
Compound: Nc1cccc2c1[nH]c1nc(Sc3cnc4cccnc4c3)nc(N3CC4C(N)C4C3)c12 (centres unmarked) [Compound 1.09]

MIC (S. aureus ATCC 13709; [4]): ≤ 0.5 µg/mL | MIC (E. coli ATCC 25922; [5]): 4 µg/mL (≈ 8.25 µM)
Compound: CCNc1cccc2c1[nH]c1nc(Sc3cnc4ccc[n+]([O-])c4c3)nc(N3CC4C(N)C4C3)c12 (centres unmarked) [Compound 1.10]

MIC (S. aureus ATCC 13709; [4]): ≤ 0.5 µg/mL | MIC (E. coli ATCC 25922; [5]): 8 µg/mL (≈ 17.1 µM)
Compound: CCNc1cccc2c1[nH]c1nc(Sc3cnc4cccnc4c3)nc(N3CC4C(N)C4C3)c12 (centres unmarked) [Compound 1.11]

MIC (S. aureus ATCC 13709; [4]): ≤ 0.5 µg/mL | MIC (E. coli ATCC 25922; [5]): 1 µg/mL (≈ 2.2 µM)
Compound: CNc1cccc2c1[nH]c1nc(Sc3cnc4cccnc4c3)nc(N3CC4C(N)C4C3)c12 (centres unmarked) [Compound 1.12]

MIC Sa (S. aureus ATCC 13709; [3]): ≤0.5 µg/mL | MIC (E. coli ATCC 25922; [5]): ≤ 0.5 µg/mL
Compound: CNc1cccc2c1[nH]c1nc(Sc3cnc4ccc[n+]([O-])c4c3)nc(N3CC4C(N)C4C3)c12 (centres unmarked) [Compound 1.13]

MIC (S. aureus ATCC 13709; [4]): ≤ 0.5 µg/mL | MIC (E. coli ATCC 25922; [5]): 1 µg/mL (≈ 2.2 µM)
Compound: CNc1cccc2c1[nH]c1nc(Sc3cnc4nccnc4c3)nc(N3CC4C(N)C4C3)c12 (centres unmarked) [Compound 1.16]

MIC Sa (S. aureus ATCC 13709; [3]): ≤0.5 µg/mL | MIC Ec (E. coli ATCC 25922; [3]): ≤0.5 µg/mL
Compound: CNc1cccc2c1[nH]c1nc(Sc3cnc4ccc[n+]([O-])c4c3)nc(N3CC4C(N)C4C3)c12 (centres unmarked) [Compound 1.23]

MIC Sa (S. aureus ATCC 13709; [3]): ≤0.5 µg/mL | MIC Ec (E. coli ATCC 25922; [3]): 1 µg/mL (≈ 2.2 µM)
Compound: CNc1cccc2c1[nH]c1nc(Sc3cnc4cccnc4c3)nc(N3CC4C(N)C4C3)c12 (centres unmarked) [Compound 1.24]

MIC (S. aureus ATCC 13709; [4]): ≤ 0.5 µg/mL | MIC Ec (E. coli ATCC 25922; [3]): 4 µg/mL (≈ 8.54 µM)
Compound: CNc1cccc2c1[nH]c1nc(Sc3cnc4cccnc4c3)nc(N3CCC4(CC4N)C3)c12 (centres unmarked) [Compound 1.25]

MIC Sa (S. aureus ATCC 13709; [3]): ≤0.5 µg/mL | MIC Ec (E. coli ATCC 25922; [3]): 1 µg/mL (≈ 2.13 µM)
Compound: CNc1cccc2c1[nH]c1nc(Sc3cnc4cccnc4c3)nc(N3CCC4(CC4N)C3)c12 (centres unmarked) [Compound 1.26]
